# Test results published in PubChem BioAssay (NCI).
#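 Each compound was tested at five concentrations against cells in 96-well plates for 48 hours. TGI is the concentration that stops growth completely.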
# Tested on: K-562 leukemia
# Assay: DTP human tumour cell line panel, 48 h
row,SMILES,TGI [µM]
1,Cc1cc(=O)oc2c(CNC(CC(C)C)C(=O)O)c(O)ccc12 (stereo unspecified),> 100
2,COC1CC(OC2C(C)OC(OC3C(C)OC(OC4C(C)OC(O[C@H]5CC[C@@]6(C)C(=CC[C@]7(O)[C@@H]6C[C@@H](O)[C@@]6(C)[C@]7(O)CC[C@@]6(O)C(C)=O)C5)CC4OC)CC3OC)CC2OC)OC(C)C1O (stereo partly specified),> 12.5
3,Cc1ccc2c(c1C)C(=O)/C(=C/c1cccc(C)c1C(=O)O)C2,> 100
4,O=C1N(c2ccccc2)C(=S)/C(=C/c2ccc(Cl)cc2)N1c1ccc(Cl)cc1,> 100
5,O=C1C=C(N2CCN(CCOCCO)CC2)C(=O)c2c(O)ccc(O)c21,> 44.6
6,CC/C(N)=N\NC(=O)OC(C)(C)C,> 100
7,CC(=O)NC1C(OCc2ccccc2)OC(CO)C(O)C1OCC(=O)N[C@@H](C)C(=O)N[C@H](CCC(=O)NCCCNc1ccc([N+](=O)[O-])c2[nH]c3ccccc3c(=O)c12)C(N)=O (stereo partly specified),> 100
8,CCOC(=O)c1cc(Br)c(-c2cc(C)co2)[nH]1,> 100
9,O=P(O)(O)CN1CCNCCN(CP(=O)(O)O)CC1,> 76.6
10,c1cc2c(cc1C1=NCCN1)c1cc(C3=NCCN3)ccc1n2CC1CCCCC1,> 100

# Tested on: LOX IMVI melanoma
# Assay: DTP human tumour cell line panel, 48 h
row,SMILES,TGI [µM]
1,COc1cc2c3c(cc(Cl)nc3c1OC)C(O)(CC(=O)c1ccccc1)C(=O)N2 (stereo unspecified),20.6
2,Cc1ccc(S[C@@H](C)[C@@](O)(C(N)=O)c2ccccc2)cc1,33.7
3,CN1CCN([C@H]2C[C@H]3[C@@H]4CC=C5C[C@@H](O)CC[C@]5(C)[C@H]4CC[C@]3(C)[C@H]2O)CC1,> 57.3
4,CC(C)c1ccc(/C=C2\CSCC3=C2N=C2SCC(=O)N2C3c2ccc(C(C)C)cc2)cc1 (stereo unspecified),> 100
5,CCOC(=O)CCC(NC(=O)c1ccc(Nc2nc3ccccc3nc2C(=O)OCC)cc1)C(=O)OCC (stereo unspecified),> 41.5
6,CC(=O)c1sc2[n+](c1C)C(=O)/C(=C\c1ccccc1Cl)S2,35.8
7,CC(NC(=O)C(Cc1ccc(OC(=O)c2ccccc2)cc1)NC(=O)OC(C)(C)C)C(=O)NCC(=O)NC(Cc1ccccc1)C(=O)NN (stereo unspecified),45
8,C[C@H](CCC(=O)NCC(=O)O)[C@H]1CC[C@H]2[C@@H]3[C@H](O)C[C@@H]4C[C@H](O)CC[C@]4(C)[C@H]3CC[C@]12C,> 100
9,CN(C)/C=C/C=C(/C=N/S(=O)(=O)C(F)(F)F)C1C=CN(S(=O)(=O)C(F)(F)F)C=C1,> 100
10,Cc1cc(=O)oc2c(CNC(CC(C)C)C(=O)O)c(O)ccc12 (stereo unspecified),> 100
11,COC1CC(OC2C(C)OC(OC3C(C)OC(OC4C(C)OC(O[C@H]5CC[C@@]6(C)C(=CC[C@]7(O)[C@@H]6C[C@@H](O)[C@@]6(C)[C@]7(O)CC[C@@]6(O)C(C)=O)C5)CC4OC)CC3OC)CC2OC)OC(C)C1O (stereo partly specified),> 12.5
12,Cc1ccc2c(c1C)C(=O)/C(=C/c1cccc(C)c1C(=O)O)C2,> 90.7
13,O=C1N(c2ccccc2)C(=S)/C(=C/c2ccc(Cl)cc2)N1c1ccc(Cl)cc1,76.5
14,O=C1C=C(N2CCN(CCOCCO)CC2)C(=O)c2c(O)ccc(O)c21,6.62
15,CC/C(N)=N\NC(=O)OC(C)(C)C,> 100
16,CC(=O)NC1C(OCc2ccccc2)OC(CO)C(O)C1OCC(=O)N[C@@H](C)C(=O)N[C@H](CCC(=O)NCCCNc1ccc([N+](=O)[O-])c2[nH]c3ccccc3c(=O)c12)C(N)=O (stereo partly specified),> 100
17,CCOC(=O)c1cc(Br)c(-c2cc(C)co2)[nH]1,> 100
18,O=P(O)(O)CN1CCNCCN(CP(=O)(O)O)CC1,> 100
19,c1cc2c(cc1C1=NCCN1)c1cc(C3=NCCN3)ccc1n2CC1CCCCC1,39.7

# Tested on: SK-OV-3 ovarian
# Assay: DTP human tumour cell line panel, 48 h
row,SMILES,TGI [µM]
1,COc1cc2c3c(cc(Cl)nc3c1OC)C(O)(CC(=O)c1ccccc1)C(=O)N2 (stereo unspecified),32.2
2,Cc1ccc(S[C@@H](C)[C@@](O)(C(N)=O)c2ccccc2)cc1,> 100
3,CN1CCN([C@H]2C[C@H]3[C@@H]4CC=C5C[C@@H](O)CC[C@]5(C)[C@H]4CC[C@]3(C)[C@H]2O)CC1,> 100
4,CC(C)c1ccc(/C=C2\CSCC3=C2N=C2SCC(=O)N2C3c2ccc(C(C)C)cc2)cc1 (stereo unspecified),> 100
5,CCOC(=O)CCC(NC(=O)c1ccc(Nc2nc3ccccc3nc2C(=O)OCC)cc1)C(=O)OCC (stereo unspecified),8.01
6,CC(=O)c1sc2[n+](c1C)C(=O)/C(=C\c1ccccc1Cl)S2,47.7
7,CC(NC(=O)C(Cc1ccc(OC(=O)c2ccccc2)cc1)NC(=O)OC(C)(C)C)C(=O)NCC(=O)NC(Cc1ccccc1)C(=O)NN (stereo unspecified),> 100
8,C[C@H](CCC(=O)NCC(=O)O)[C@H]1CC[C@H]2[C@@H]3[C@H](O)C[C@@H]4C[C@H](O)CC[C@]4(C)[C@H]3CC[C@]12C,> 100
9,CN(C)/C=C/C=C(/C=N/S(=O)(=O)C(F)(F)F)C1C=CN(S(=O)(=O)C(F)(F)F)C=C1,94
10,Cc1cc(=O)oc2c(CNC(CC(C)C)C(=O)O)c(O)ccc12 (stereo unspecified),> 100
11,COC1CC(OC2C(C)OC(OC3C(C)OC(OC4C(C)OC(O[C@H]5CC[C@@]6(C)C(=CC[C@]7(O)[C@@H]6C[C@@H](O)[C@@]6(C)[C@]7(O)CC[C@@]6(O)C(C)=O)C5)CC4OC)CC3OC)CC2OC)OC(C)C1O (stereo partly specified),> 12.5
12,Cc1ccc2c(c1C)C(=O)/C(=C/c1cccc(C)c1C(=O)O)C2,> 100
13,O=C1N(c2ccccc2)C(=S)/C(=C/c2ccc(Cl)cc2)N1c1ccc(Cl)cc1,95.7
14,O=C1C=C(N2CCN(CCOCCO)CC2)C(=O)c2c(O)ccc(O)c21,38.8
15,CC/C(N)=N\NC(=O)OC(C)(C)C,> 100
16,CC(=O)NC1C(OCc2ccccc2)OC(CO)C(O)C1OCC(=O)N[C@@H](C)C(=O)N[C@H](CCC(=O)NCCCNc1ccc([N+](=O)[O-])c2[nH]c3ccccc3c(=O)c12)C(N)=O (stereo partly specified),> 100
17,CCOC(=O)c1cc(Br)c(-c2cc(C)co2)[nH]1,> 100
18,O=P(O)(O)CN1CCNCCN(CP(=O)(O)O)CC1,> 100
19,c1cc2c(cc1C1=NCCN1)c1cc(C3=NCCN3)ccc1n2CC1CCCCC1,81.8

# Tested on: DU-145 prostate
# Assay: DTP human tumour cell line panel, 48 h
row,SMILES,TGI [µM]
1,COc1cc2c3c(cc(Cl)nc3c1OC)C(O)(CC(=O)c1ccccc1)C(=O)N2 (stereo unspecified),30.1
2,Cc1ccc(S[C@@H](C)[C@@](O)(C(N)=O)c2ccccc2)cc1,> 100
3,CN1CCN([C@H]2C[C@H]3[C@@H]4CC=C5C[C@@H](O)CC[C@]5(C)[C@H]4CC[C@]3(C)[C@H]2O)CC1,> 100
4,CC(C)c1ccc(/C=C2\CSCC3=C2N=C2SCC(=O)N2C3c2ccc(C(C)C)cc2)cc1 (stereo unspecified),> 100
5,CCOC(=O)CCC(NC(=O)c1ccc(Nc2nc3ccccc3nc2C(=O)OCC)cc1)C(=O)OCC (stereo unspecified),> 35.8
6,CC(=O)c1sc2[n+](c1C)C(=O)/C(=C\c1ccccc1Cl)S2,33.6
7,CC(NC(=O)C(Cc1ccc(OC(=O)c2ccccc2)cc1)NC(=O)OC(C)(C)C)C(=O)NCC(=O)NC(Cc1ccccc1)C(=O)NN (stereo unspecified),> 100
8,C[C@H](CCC(=O)NCC(=O)O)[C@H]1CC[C@H]2[C@@H]3[C@H](O)C[C@@H]4C[C@H](O)CC[C@]4(C)[C@H]3CC[C@]12C,> 100
9,CN(C)/C=C/C=C(/C=N/S(=O)(=O)C(F)(F)F)C1C=CN(S(=O)(=O)C(F)(F)F)C=C1,> 100
10,Cc1cc(=O)oc2c(CNC(CC(C)C)C(=O)O)c(O)ccc12 (stereo unspecified),> 100
11,COC1CC(OC2C(C)OC(OC3C(C)OC(OC4C(C)OC(O[C@H]5CC[C@@]6(C)C(=CC[C@]7(O)[C@@H]6C[C@@H](O)[C@@]6(C)[C@]7(O)CC[C@@]6(O)C(C)=O)C5)CC4OC)CC3OC)CC2OC)OC(C)C1O (stereo partly specified),> 12.5
12,Cc1ccc2c(c1C)C(=O)/C(=C/c1cccc(C)c1C(=O)O)C2,> 100
13,O=C1N(c2ccccc2)C(=S)/C(=C/c2ccc(Cl)cc2)N1c1ccc(Cl)cc1,> 100
14,O=C1C=C(N2CCN(CCOCCO)CC2)C(=O)c2c(O)ccc(O)c21,10.5
15,CC/C(N)=N\NC(=O)OC(C)(C)C,> 100
16,CC(=O)NC1C(OCc2ccccc2)OC(CO)C(O)C1OCC(=O)N[C@@H](C)C(=O)N[C@H](CCC(=O)NCCCNc1ccc([N+](=O)[O-])c2[nH]c3ccccc3c(=O)c12)C(N)=O (stereo partly specified),> 100
17,CCOC(=O)c1cc(Br)c(-c2cc(C)co2)[nH]1,> 100
18,O=P(O)(O)CN1CCNCCN(CP(=O)(O)O)CC1,> 100
19,c1cc2c(cc1C1=NCCN1)c1cc(C3=NCCN3)ccc1n2CC1CCCCC1,77.1

# Tested on: HS 578T breast
# Assay: DTP human tumour cell line panel, 48 h
row,SMILES,TGI [µM]
1,COc1cc2c3c(cc(Cl)nc3c1OC)C(O)(CC(=O)c1ccccc1)C(=O)N2 (stereo unspecified),73.4
2,Cc1ccc(S[C@@H](C)[C@@](O)(C(N)=O)c2ccccc2)cc1,> 100
3,CN1CCN([C@H]2C[C@H]3[C@@H]4CC=C5C[C@@H](O)CC[C@]5(C)[C@H]4CC[C@]3(C)[C@H]2O)CC1,> 100
4,CC(C)c1ccc(/C=C2\CSCC3=C2N=C2SCC(=O)N2C3c2ccc(C(C)C)cc2)cc1 (stereo unspecified),> 100
5,CCOC(=O)CCC(NC(=O)c1ccc(Nc2nc3ccccc3nc2C(=O)OCC)cc1)C(=O)OCC (stereo unspecified),21.7
6,CC(=O)c1sc2[n+](c1C)C(=O)/C(=C\c1ccccc1Cl)S2,> 100
7,CC(NC(=O)C(Cc1ccc(OC(=O)c2ccccc2)cc1)NC(=O)OC(C)(C)C)C(=O)NCC(=O)NC(Cc1ccccc1)C(=O)NN (stereo unspecified),> 100
8,C[C@H](CCC(=O)NCC(=O)O)[C@H]1CC[C@H]2[C@@H]3[C@H](O)C[C@@H]4C[C@H](O)CC[C@]4(C)[C@H]3CC[C@]12C,> 100
9,CN(C)/C=C/C=C(/C=N/S(=O)(=O)C(F)(F)F)C1C=CN(S(=O)(=O)C(F)(F)F)C=C1,> 100
10,Cc1cc(=O)oc2c(CNC(CC(C)C)C(=O)O)c(O)ccc12 (stereo unspecified),> 100
11,COC1CC(OC2C(C)OC(OC3C(C)OC(OC4C(C)OC(O[C@H]5CC[C@@]6(C)C(=CC[C@]7(O)[C@@H]6C[C@@H](O)[C@@]6(C)[C@]7(O)CC[C@@]6(O)C(C)=O)C5)CC4OC)CC3OC)CC2OC)OC(C)C1O (stereo partly specified),> 12.5
12,Cc1ccc2c(c1C)C(=O)/C(=C/c1cccc(C)c1C(=O)O)C2,> 100
13,O=C1N(c2ccccc2)C(=S)/C(=C/c2ccc(Cl)cc2)N1c1ccc(Cl)cc1,> 100
14,O=C1C=C(N2CCN(CCOCCO)CC2)C(=O)c2c(O)ccc(O)c21,45.3
15,CC/C(N)=N\NC(=O)OC(C)(C)C,> 100
16,CC(=O)NC1C(OCc2ccccc2)OC(CO)C(O)C1OCC(=O)N[C@@H](C)C(=O)N[C@H](CCC(=O)NCCCNc1ccc([N+](=O)[O-])c2[nH]c3ccccc3c(=O)c12)C(N)=O (stereo partly specified),90.2
17,CCOC(=O)c1cc(Br)c(-c2cc(C)co2)[nH]1,> 100
18,O=P(O)(O)CN1CCNCCN(CP(=O)(O)O)CC1,> 100
19,c1cc2c(cc1C1=NCCN1)c1cc(C3=NCCN3)ccc1n2CC1CCCCC1,32
